In PMC10657444, “Design and evaluation of tadpole-like conformational antimicrobial peptides” (Communications Biology, 2023):
“And” between values parts separate entries of the source, which are not always exact repeats. Identical values can stand only once. Non-standard residues stand in square brackets, D forms with d. Residues, ends and D or L forms follow the SMILES beside them.

Assays:
[1] = system: MRSA USA 300; test: Membrane permeability, SYTOX Green; assay type: cell-based, Staphylococcus aureus
Method: (§1) Fluorescent probe SYTOX^TM Green (Invitrogen/ Life Technologies, S7020) was used to analyze the effect of HT2 and RI-HT2 on membrane permeability of MRSA USA 300 and K. pneumoniae ATCC 700603 as described elsewhere. SYTOX^TM Green is a DNA binding dye that is fluorescent when bound to nucleic acids and only enters cells with compromised plasma membranes. MRSA USA 300 and K. pneumoniae ATCC 700603 were cultured in LB broth to mid log phase at 37 °C and washed with PBS and resuspended (OD595 ≈ 0.1) in the same buffer. SYTOX^TM Green was added into the cell suspension with a final concentration of 5 μM and being kept in dark for 20 min. 98 µL pre-treated cell suspension was transferred into wells of 96-well glass black plates. Then, 2 µL of compound or DMSO were added to initiate the reaction. The final concentrations of HT2 and RI-HT2 were 1 ×, 2 ×, 4 × and 8 × MIC. Fluorescence strength was measured with excitation/emission wavelength of 485/528 nm every 5 min for 60 min.

[2] = system: MRSA USA 300; test: Membrane depolarization assay, DiSC3(5); assay type: cell-based, Staphylococcus aureus
Method: MRSA USA 300 and K. pneumoniae ATCC 700603 were inoculated into 5 mL of LB and shaken at 37°C and 225 rpm to OD600 ≈ 0.5 (i.e., mid-logarithmic phase). Bacteria were collected by centrifugation at 8000 rpm for 5 min, and washed twice with assay buffer (5 mM HEPES, 20 mM glucose, 10 mM KCl, pH 7.2). Bacteria were resuspended in the assay buffer to OD595 ≈ 0.1. DiSC3(5) was added to the cells at final concentration of 0.3 µM, wrapped with aluminum foil, and incubated at 37°C, until a stable fluorescence was observed. Two microliter of compound or DMSO were transferred into 96-well black walled polystyrene plates, to which was added 98 µL per well of the dye-saturated bacterial cells to initiate the reaction. The final concentration of HT2 and RI-HT2 were 1 ×, 2 ×, 4 × and 8 × MIC. Plates were immediately read on an Envison at λex = 622 nm/ λem = 670 nm with a kinetic program (reading every 1 min for 10 min) until the maximal intensity achieved was observed.

[3] = system: MRSA USA 300; test: Scanning electron microscopy; assay type: cell-based, Staphylococcus aureus; details: 2 × MIC, 60 min
Method: Mid-log phase bacteria (MRSA USA 300 and K. pneumoniae ATCC 700603) grown in LB broth were adjusted to a density of 5 × 10^6 CFU/mL. […] All samples were centrifuged at 8000 rpm for 5 min, washed and then resuspended in PBS. Bacterial cells were fixed with 2.5% glutaraldehyde, and then incubated at 37°C on a glass slide for 20 min. Samples were dehydrated by passing through gradient ethanol (10%, 30%, 50%, 70%, 90%, and 100%) for 5 min at each concentration. Slides were dried with an automatic critical point drying instrument (Leica EM CPD300), and a small amount of gold was sputtered onto the samples using a sputter coater system to avoid charging in the microscope. Finally, the bacteria were visualized under a field-emission scanning electron microscopy (FESEM) device (Sirion 200).

[4] = MTT cytotoxicity assay; assay type: cell-based, human; details: human
[5] = system: K. pneumoniae ATCC 700603; test: Membrane permeability, SYTOX Green; assay type: cell-based, Klebsiella pneumoniae
Method: as §1

[6] = HEK293T cells, OD450, cytotoxicity (Fig 2a), replicates

CC[C@@H](C)[C@@H](NC(=O)[C@@H](Cc1ccccc1)NC(=O)[C@@H](Cc1ccccc1)NC(=O)[C@@H](Cc1ccccc1)NC(=O)[C@H](N)Cc1ccccc1)C(=O)N[C@H](CCCNC(=N)N)C(=O)N[C@H](CCCNC(=N)N)C(=O)N[C@H](CC(C)C)C(=O)N[C@H](Cc1ccccc1)C(=O)N[C@H](CCCNC(=N)N)C(N)=O [RI-HT2] (H-[dF][dF][dF][dF][dI][dR][dR][dL][dF][dR]-NH2; N-terminus assumed)
Fluorescence intensity ([1]; 2 × MIC, time 0 min): 1131 and 1217 and 1235 | Fluorescence intensity ([1]; 2 × MIC, time 5 min): 20197 and 21230 and 20865 | Fluorescence intensity ([1]; 2 × MIC, time 10 min): 25460 and 25912 and 25261 | Fluorescence intensity ([1]; 2 × MIC, time 15 min): 28346 and 28832 and 27920 | Fluorescence intensity ([1]; 2 × MIC, time 20 min): 30460 and 31033 and 29642 | Fluorescence intensity ([1]; 2 × MIC, time 25 min): 31855 and 32475 and 30920 | Fluorescence intensity ([1]; 2 × MIC, time 30 min): 32738 and 33363 and 31902 | Fluorescence intensity ([1]; 2 × MIC, time 35 min): 33433 and 34141 and 32365 | Fluorescence intensity ([1]; 4 × MIC, time 0 min): 1186 and 1404 and 1281 | Fluorescence intensity ([1]; 4 × MIC, time 5 min): 40226 and 40219 and 41612 | Fluorescence intensity ([1]; 4 × MIC, time 10 min): 48704 and 48472 and 50316 | Fluorescence intensity ([1]; 4 × MIC, time 15 min): 53321 and 53163 and 55112 | Fluorescence intensity ([1]; 4 × MIC, time 20 min): 56328 and 55931 and 58102 | Fluorescence intensity ([1]; 4 × MIC, time 25 min): 58334 and 57993 and 60104 | Fluorescence intensity ([1]; 4 × MIC, time 30 min): 59686 and 59179 and 61418 | Fluorescence intensity ([1]; 4 × MIC, time 35 min): 60470 and 60307 and 62172 | Fluorescence intensity ([1]; 8 × MIC, time 0 min): 1486 and 1674 and 1277 | Fluorescence intensity ([1]; 8 × MIC, time 5 min): 46924 and 49356 and 49374 | Fluorescence intensity ([1]; 8 × MIC, time 10 min): 54383 and 56666 and 56984 | Fluorescence intensity ([1]; 8 × MIC, time 15 min): 57832 and 59952 and 60652 | Fluorescence intensity ([1]; 8 × MIC, time 20 min): 59829 and 61957 and 62485 | Fluorescence intensity ([1]; 8 × MIC, time 25 min): 61022 and 63005 and 63531 | Fluorescence intensity ([1]; 8 × MIC, time 30 min): 61916 and 63588 and 64175 | Fluorescence intensity ([1]; 8 × MIC, time 35 min): 62425 and 64473 and 64696 | Fluorescence intensity ([1]; 8 × MIC, time 40 min): 62708 | Fluorescence intensity ([1]; MIC, time 0 min): 1304 and 1201 and 1387 | Fluorescence intensity ([1]; MIC, time 5 min): 12522 and 12645 and 12185 | Fluorescence intensity ([1]; MIC, time 10 min): 14676 and 14962 and 14128 | Fluorescence intensity ([1]; MIC, time 15 min): 16119 and 16290 and 15431 | Fluorescence intensity ([1]; MIC, time 20 min): 16841 and 16805 and 16042 | Fluorescence intensity ([1]; MIC, time 25 min): 17216 and 17215 and 16315 | Fluorescence intensity ([1]; MIC, time 30 min): 17367 and 17359 and 16618 | Fluorescence intensity ([1]; MIC, time 35 min): 17590 and 17525 and 16584 | Fluorescence intensity ([1]; MIC, time 40 min): 17600 and 17633 and 16680 | time to maximum SYTOX Green fluorescence intensity ([1]; different concentrations): ≤ 15 min | concentration at which DiSC3(5) fluorescence intensity changed significantly [2]: 8 × MIC | cell surface morphology by SEM (in words) [3]: rough, shrunken, wrinkled and partially damaged | IC50 at 72 h [4]: > 100 µM | viability at 72 h, 6.25 µM ([4]; HEK293T cells, HEK293T, 6.25 µM, read-out: OD450, cytotoxicity (Fig 2a), replicates): 90.2% | viability at 72 h, 12.5 µM ([4]; HEK293T cells, HEK293T, 12.5 µM, read-out: OD450, cytotoxicity (Fig 2a), replicates): 87.8% | viability at 72 h, 0.39 µM [4, 6]: 102% | viability at 72 h, 0.78 µM [4, 6]: 94.4% | viability at 72 h, 1.57 µM [4, 6]: 92.8% | viability at 72 h, 3.13 µM [4, 6]: 93% | viability at 72 h, 25 µM [4, 6]: 84.2% | viability at 72 h, 50 µM [4, 6]: 77.8% | viability at 72 h, 100 µM [4, 6]: 75.8% | Fluorescence intensity ([5]; 2 × MIC, time 0 min): 1284 and 1283 and 1287 | Fluorescence intensity ([5]; 2 × MIC, time 5 min): 3609 and 3355 and 3304 | Fluorescence intensity ([5]; 2 × MIC, time 10 min): 8683 and 7973 and 7881 | Fluorescence intensity ([5]; 2 × MIC, time 15 min): 14691 and 13649 and 13959 | Fluorescence intensity ([5]; 2 × MIC, time 20 min): 20043 and 18959 and 19659 | Fluorescence intensity ([5]; 2 × MIC, time 25 min): 24616 and 23653 and 24172 | Fluorescence intensity ([5]; 2 × MIC, time 30 min): 28652 and 27362 and 28393 | Fluorescence intensity ([5]; 2 × MIC, time 35 min): 31775 and 30780 and 31899 | Fluorescence intensity ([5]; 4 × MIC, time 0 min): 1309 and 1246 and 1149 | Fluorescence intensity ([5]; 4 × MIC, time 5 min): 36231 and 38899 and 38058 | Fluorescence intensity ([5]; 4 × MIC, time 10 min): 55462 and 53189 and 56098 | Fluorescence intensity ([5]; 4 × MIC, time 15 min): 60865 and 61985 and 61514 | Fluorescence intensity ([5]; 4 × MIC, time 20 min): 61161 and 60954 and 60896 | Fluorescence intensity ([5]; 4 × MIC, time 25 min): 61613 and 62061 and 61850 | Fluorescence intensity ([5]; 4 × MIC, time 30 min): 62160 and 62706 and 62610 | Fluorescence intensity ([5]; 4 × MIC, time 35 min): 62714 and 61385 and 61471 | Fluorescence intensity ([5]; 8 × MIC, time 0 min): 1294 and 1162 and 1248 | Fluorescence intensity ([5]; 8 × MIC, time 5 min): 46731 and 44912 and 46760 | Fluorescence intensity ([5]; 8 × MIC, time 10 min): 54425 and 53299 and 56314 | Fluorescence intensity ([5]; 8 × MIC, time 15 min): 62319 and 60472 and 61594 | Fluorescence intensity ([5]; 8 × MIC, time 20 min): 64747 and 64976 and 65277 | Fluorescence intensity ([5]; 8 × MIC, time 25 min): 65628 and 65784 and 65550 | Fluorescence intensity ([5]; 8 × MIC, time 30 min): 65623 and 66146 and 65510 | Fluorescence intensity ([5]; 8 × MIC, time 35 min): 66248 and 66493 and 66011 | Fluorescence intensity ([5]; 8 × MIC, time 40 min): 66880 | Fluorescence intensity ([5]; MIC, time 0 min): 1004 and 1023 and 1031 | Fluorescence intensity ([5]; MIC, time 5 min): 2234 and 2276 and 2181 | Fluorescence intensity ([5]; MIC, time 10 min): 3718 and 3745 and 3579 | Fluorescence intensity ([5]; MIC, time 15 min): 5602 and 5647 and 5393 | Fluorescence intensity ([5]; MIC, time 20 min): 7978 and 7923 and 7560 | Fluorescence intensity ([5]; MIC, time 25 min): 10663 and 10527 and 10076 | Fluorescence intensity ([5]; MIC, time 30 min): 13390 and 13373 and 12886 | Fluorescence intensity ([5]; MIC, time 35 min): 16041 and 16009 and 15623 | Fluorescence intensity ([5]; MIC, time 40 min): 18514 and 18484 and 18179 | time to highest SYTOX Green fluorescence intensity ([5]; dose-dependent): ≤ 40 min
